Reference: ChEMBL document CHEMBL3044870, “Effect of clomazone on various market classes of dry beans” (Crop Prot, 2007)

What was measured:
Type in all cases: organism-based
Conditions in all cases: in vivo, other
Phaseolus vulgaris [1] = assay: Phytotoxicity against Phaseolus vulgaris (yellow eye beans) assessed as visual crop injury at 2232 g a.i./ha applied pre-emergence 1 to 2 days post-planting measured on day 14 post-emergence relative to control
Phaseolus vulgaris [2] = assay: Phytotoxicity against Phaseolus vulgaris (cranberry beans) assessed as shoot dry weight at 1116 g a.i./ha applied pre-emergence 1 to 2 days post-planting measured on day 42 post-emergence (reference value: 161 g/m)
Phaseolus vulgaris [3] = assay: Phytotoxicity against Phaseolus vulgaris (cranberry beans) assessed as yield at 2232 g a.i./ha applied pre-emergence 1 to 2 days post-planting measured on day 42 post-emergence (reference value: 3.1 tons/ha)
Phaseolus vulgaris [4] = assay: Phytotoxicity against Phaseolus vulgaris (brown beans) assessed as yield at 2232 g a.i./ha applied pre-emergence 1 to 2 days post-planting measured on day 42 post-emergence (reference value: 2.5 tons/ha)
Phaseolus vulgaris [5] = assay: Phytotoxicity against Phaseolus vulgaris (kidney beans) assessed as plant height at 1116 g a.i./ha applied pre-emergence 1 to 2 days post-planting measured on day 28 post-emergence (reference value: 37 cm)
Phaseolus vulgaris [6] = assay: Phytotoxicity against Phaseolus vulgaris (otebo beans) assessed as plant height at 1116 g a.i./ha applied pre-emergence 1 to 2 days post-planting measured on day 28 post-emergence (reference value: 38 cm)
Phaseolus vulgaris [7] = assay: Phytotoxicity against Phaseolus vulgaris (brown beans) assessed as plant height at 2232 g a.i./ha applied pre-emergence 1 to 2 days post-planting measured on day 28 post-emergence (reference value: 37 cm)
Phaseolus vulgaris [8] = assay: Phytotoxicity against Phaseolus vulgaris (dry beans) assessed as visual crop injury at 2232 g a.i./ha applied pre-emergence 1 to 2 days post-planting measured on day 28 post-emergence relative to control
Phaseolus vulgaris [9] = assay: Phytotoxicity against Phaseolus vulgaris (black beans) assessed as plant height at 2232 g a.i./ha applied pre-emergence 1 to 2 days post-planting measured on day 28 post-emergence (reference value: 34 cm)
Phaseolus vulgaris [10] = assay: Phytotoxicity against Phaseolus vulgaris (white beans) assessed as plant height at 2232 g a.i./ha applied pre-emergence 1 to 2 days post-planting measured on day 28 post-emergence (reference value: 36 cm)
Phaseolus vulgaris [11] = assay: Phytotoxicity against Phaseolus vulgaris (kidney beans) assessed as yield at 2232 g a.i./ha applied pre-emergence 1 to 2 days post-planting measured on day 42 post-emergence (reference value: 2.3 tons/ha)
Phaseolus vulgaris [12] = assay: Phytotoxicity against Phaseolus vulgaris (white beans) assessed as shoot dry weight at 2232 g a.i./ha applied pre-emergence 1 to 2 days post-planting measured on day 42 post-emergence (reference value: 175 g/m)
Phaseolus vulgaris [13] = assay: Phytotoxicity against Phaseolus vulgaris (white beans) assessed as visual crop injury at 2232 g a.i./ha applied pre-emergence 1 to 2 days post-planting measured on day 14 post-emergence relative to control
Phaseolus vulgaris [14] = assay: Phytotoxicity against Phaseolus vulgaris (brown beans) assessed as visual crop injury at 2232 g a.i./ha applied pre-emergence 1 to 2 days post-planting measured on day 14 post-emergence relative to control
Phaseolus vulgaris [15] = assay: Phytotoxicity against Phaseolus vulgaris (brown beans) assessed as plant height at 1116 g a.i./ha applied pre-emergence 1 to 2 days post-planting measured on day 28 post-emergence (reference value: 37 cm)
Phaseolus vulgaris [16] = assay: Phytotoxicity against Phaseolus vulgaris (kidney beans) assessed as shoot dry weight at 2232 g a.i./ha applied pre-emergence 1 to 2 days post-planting measured on day 42 post-emergence (reference value: 145 g/m)
Phaseolus vulgaris [17] = assay: Phytotoxicity against Phaseolus vulgaris (pinto beans) assessed as visual crop injury at 2232 g a.i./ha applied pre-emergence 1 to 2 days post-planting measured on day 14 post-emergence relative to control
Phaseolus vulgaris [18] = assay: Phytotoxicity against Phaseolus vulgaris (kidney beans) assessed as visual crop injury at 2232 g a.i./ha applied pre-emergence 1 to 2 days post-planting measured on day 14 post-emergence relative to control
Phaseolus vulgaris [19] = assay: Phytotoxicity against Phaseolus vulgaris (white beans) assessed as yield at 1116 g a.i./ha applied pre-emergence 1 to 2 days post-planting measured on day 42 post-emergence (reference value: 3 tons/ha)
Phaseolus vulgaris [20] = assay: Phytotoxicity against Phaseolus vulgaris (cranberry beans) assessed as yield at 1116 g a.i./ha applied pre-emergence 1 to 2 days post-planting measured on day 42 post-emergence (reference value: 3.1 tons/ha)
Phaseolus vulgaris [21] = assay: Phytotoxicity against Phaseolus vulgaris (black beans) assessed as visual crop injury at 1116 g a.i./ha applied pre-emergence 1 to 2 days post-planting measured on day 14 post-emergence relative to control
Phaseolus vulgaris [22] = assay: Phytotoxicity against Phaseolus vulgaris (black beans) assessed as visual crop injury at 2232 g a.i./ha applied pre-emergence 1 to 2 days post-planting measured on day 14 post-emergence relative to control
Phaseolus vulgaris [23] = assay: Phytotoxicity against Phaseolus vulgaris (pinto beans) assessed as plant height at 1116 g a.i./ha applied pre-emergence 1 to 2 days post-planting measured on day 28 post-emergence (reference value: 38 cm)
Phaseolus vulgaris [24] = assay: Phytotoxicity against Phaseolus vulgaris (cranberry beans) assessed as visual crop injury at 1116 g a.i./ha applied pre-emergence 1 to 2 days post-planting measured on day 14 post-emergence relative to control
Phaseolus vulgaris [25] = assay: Phytotoxicity against Phaseolus vulgaris (cranberry beans) assessed as plant height at 2232 g a.i./ha applied pre-emergence 1 to 2 days post-planting measured on day 28 post-emergence (reference value: 37 cm)
Phaseolus vulgaris [26] = assay: Phytotoxicity against Phaseolus vulgaris (otebo beans) assessed as yield at 1116 g a.i./ha applied pre-emergence 1 to 2 days post-planting measured on day 42 post-emergence (reference value: 3.4 tons/ha)
Phaseolus vulgaris [27] = assay: Phytotoxicity against Phaseolus vulgaris (dry beans) assessed as visual crop injury at 1116 g a.i./ha applied pre-emergence 1 to 2 days post-planting measured on day 28 post-emergence relative to control
Phaseolus vulgaris [28] = assay: Phytotoxicity against Phaseolus vulgaris (white beans) assessed as visual crop injury at 1116 g a.i./ha applied pre-emergence 1 to 2 days post-planting measured on day 14 post-emergence relative to control
Phaseolus vulgaris [29] = assay: Phytotoxicity against Phaseolus vulgaris (dry beans) assessed as visual crop injury at 2232 g a.i./ha applied pre-emergence 1 to 2 days post-planting measured on day 14 post-emergence relative to control
Phaseolus vulgaris [30] = assay: Phytotoxicity against Phaseolus vulgaris (otebo beans) assessed as visual crop injury at 2232 g a.i./ha applied pre-emergence 1 to 2 days post-planting measured on day 14 post-emergence relative to control
Phaseolus vulgaris [31] = assay: Phytotoxicity against Phaseolus vulgaris (pinto beans) assessed as shoot dry weight at 2232 g a.i./ha applied pre-emergence 1 to 2 days post-planting measured on day 42 post-emergence (reference value: 168 g/m)
Phaseolus vulgaris [32] = assay: Phytotoxicity against Phaseolus vulgaris (brown beans) assessed as visual crop injury at 1116 g a.i./ha applied pre-emergence 1 to 2 days post-planting measured on day 14 post-emergence relative to control

`CC1(C)CON(Cc2ccccc2Cl)C1=O` [CLOMAZONE] was tested. Which Activity (Phaseolus vulgaris [1]) did it give?
The Activity was 10%.

And the Activity (Phaseolus vulgaris [2])?
The Activity was 150 g/m.

And the Crop_yield (Phaseolus vulgaris [3])?
Its Crop_yield is 3 tons/ha.

And the Crop_yield (Phaseolus vulgaris [4])?
The Crop_yield was 2.7 tons/ha.

What about the Activity (Phaseolus vulgaris [5]) of the same compound?
Its Activity is 35 cm.

And the Activity (Phaseolus vulgaris [6])?
The Activity was 37 cm.

What about the Activity (Phaseolus vulgaris [7]) of the same compound?
Its Activity is 35 cm.

What about the Activity (Phaseolus vulgaris [8]) of the same compound?
Its Activity is 4%.

What about the Activity (Phaseolus vulgaris [9]) of the same compound?
The Activity was 30 cm.

What about the Activity (Phaseolus vulgaris [10]) of the same compound?
Its Activity is 32 cm.

And the Crop_yield (Phaseolus vulgaris [11])?
Its Crop_yield is 2.3 tons/ha.

What about the Activity (Phaseolus vulgaris [12]) of the same compound?
The Activity was 154 g/m.

And the Activity (Phaseolus vulgaris [13])?
The Activity was 6%.

What about the Activity (Phaseolus vulgaris [14]) of the same compound?
Its Activity is 8%.

And the Activity (Phaseolus vulgaris [15])?
The Activity was 35 cm.

What about the Activity (Phaseolus vulgaris [16]) of the same compound?
The Activity was 116 g/m.

And the Activity (Phaseolus vulgaris [17])?
The Activity was 11%.

And the Activity (Phaseolus vulgaris [18])?
The Activity was 10%.

What about the Crop_yield (Phaseolus vulgaris [19]) of the same compound?
Its Crop_yield is 3.1 tons/ha.

And the Crop_yield (Phaseolus vulgaris [20])?
Its Crop_yield is 3.2 tons/ha.

And the Activity (Phaseolus vulgaris [21])?
The Activity was 3%.

What about the Activity (Phaseolus vulgaris [22]) of the same compound?
Its Activity is 13%.

What about the Activity (Phaseolus vulgaris [23]) of the same compound?
The Activity was 36 cm.

What about the Activity (Phaseolus vulgaris [24]) of the same compound?
Its Activity is 6%.

And the Activity (Phaseolus vulgaris [25])?
The Activity was 32 cm.

And the Crop_yield (Phaseolus vulgaris [26])?
Its Crop_yield is 3.4 tons/ha.

What about the Activity (Phaseolus vulgaris [27]) of the same compound?
Its Activity is 1%.

What about the Activity (Phaseolus vulgaris [28]) of the same compound?
Its Activity is 2%.

And the Activity (Phaseolus vulgaris [29])?
The Activity was 10%.

What about the Activity (Phaseolus vulgaris [30]) of the same compound?
Its Activity is 11%.

And the Activity (Phaseolus vulgaris [31])?
The Activity was 146 g/m.

What about the Activity (Phaseolus vulgaris [32]) of the same compound?
Its Activity is 3%.
